Experimental data from US9943599B2, “Therapeutic applications of calcium electroporation to effectively induce tumor necrosis” (Herlev Hospital, priority 2011, dated 2018).

Tests used:
[1] = tested on: DC-3F, K-562 and Lewis Lung Carcinoma cells; experiment: In vitro electroporation, MTT viability assay; assay type: cell-based, Chinese hamster, human, murine; settings: electroporated; data not shown
Procedure: Three cell lines are used for in vitro experiments, DC-3F, a transformed Chinese hamster lung fibroblast cell line; K-562, a human leukemia cell line; and Lewis Lung Carcinoma, a murine lung carcinoma cell line. DC-3F cells were tested for mycoplasma in January 2011, K-562 cells were tested for mycoplasma in 2008 prior to freezing and thawing just before experiments were performed, and Lewis Lung cells were tested by rapid MAP27 panel (Taconic, Hudson N.Y.) in July 2011 without signs of infection. Cells are maintained in RPMI 1640 culture medium (GIBCO™, Life Technologies, Carlsbad, Calif.) with 10% fetal calf serum (GIBCO™, Life Technologies, Carlsbad, Calif.), penicillin and streptomycin at 37° C. and 5% C02. After harvesting, cells are washed and diluted in HEPES buffer containing 10 mM HEPES (Lonza, Basel, Switzerland), 250 mM sucrose and 1 mM MgCl2 in sterile water. 270 μl cell suspension (6.1×10^6 cells/ml) and 30 μl CaCl2, or in the case of controls, HEPES buffer, are electroporated in 4 mm wide cuvettes with aluminium electrodes (Molecular BioProducts, Inc., San Diego, Calif.). Cooled cells (8° C.) are exposed to 8 pulses of 1.2 kV/cm with pulse duration of 99 μs (DC-3F and K562 cells) or 8 pulses of 1.4 kV/cm with pulse duration of 99 μs (Lewis Lung Carcinoma) using a BTX® T820 square wave electroporator (BTX®, Harvard Apparatus, Holliston, Mass.). The electroporation parameters are chosen after optimization to obtain high permabilisation and cell survival. After 20 min at 37° C. and 5% CO2 cells are diluted in RPMI 1640 culture medium with 10% fetal calf serum and penicillin-streptomycin and seeded in 96-well plates at a concentration of 3.1×10^4 cells/100 μl.
Difference between electroporated and non-electroporated cells in identical buffer is assessed using two-way analysis of variance (ANOVA) with post least-squares-means test with Bonferroni correction for multiple comparisons.

DC-3F cells = experiment: Calcium electroporation with two calcium sources, MTT assay; assay type: cell-based, Chinese hamster; settings: 1 mM, 8 pulses, 0-1.6 kV/cm; MTT 1 day after treatment
Procedure: DC-3F cells were electroporated as described in example 1 with 1 mM calcium chloride (prepared by SAD, Denmark) or 1 mM calcium glubionate (Sandoz, Holzkirchen, Germany). The calcium concentration was chosen based on the experiment described in example 1 where 1 mM calcium is the lowest concentration inducing high cell death. The cells were electroporated with 8 pulses of […] at 1 Hz and increasing electric field (0-1.6 kV/cm). After 20 min at 37° C. and 5% CO2 cells were diluted in RPMI 1640 culture medium with 10% fetal calf serum and penicillin-streptomycin and seeded in 96-well plates at a concentration of 3.1×10^4 cells/100 μl.

Molecule	concentration giving a decrease in viability similar to calcium electroporation [1] [µM]	effect of calcium electroporation on cell viability, calcium chloride versus calcium glubionate (DC-3F cells)
bleomycin	≥ 0.1	
O.O=C([O-])[C@H](O)[C@@H](O)[C@H](O)[C@H](O)CO.O=C([O-])[C@H](O)[C@@H](O)[C@H](O[C@@H]1O[C@H](CO)[C@H](O)[C@H](O)[C@H]1O)[C@H](O)CO.[Ca+2] [calcium glubionate]		no difference
